Laboratory results taken from PubChem BioAssay (NCI).
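Compound exposure: 48 hours, 5 concentrations, 96-well plates. TGI is the concentration that stops growth completely.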

Legend:
Test in all cases: NCI tumour cell line growth inhibition, 48 h
LOX IMVI melanoma = tested on: LOX IMVI melanoma
RXF 393 renal = tested on: RXF 393 renal
SK-MEL-28 melanoma = tested on: SK-MEL-28 melanoma
NCI/ADR-RES ovarian = tested on: NCI/ADR-RES ovarian
A549 NSCLC = tested on: A549 NSCLC
MDA-MB-231 breast = tested on: MDA-MB-231 breast
MDA-MB-435 = tested on: MDA-MB-435
MALME-3M melanoma = tested on: MALME-3M melanoma
NCI-H522 lung = tested on: NCI-H522 lung
MCF7 breast = tested on: MCF7 breast
HOP-62 NSCLC = tested on: HOP-62 NSCLC
PC-3 prostate = tested on: PC-3 prostate
RPMI-8226 leukemia = tested on: RPMI-8226 leukemia
SK-OV-3 ovarian = tested on: SK-OV-3 ovarian
OVCAR-5 ovarian = tested on: OVCAR-5 ovarian
U251 CNS = tested on: U251 CNS
EKVX NSCLC = tested on: EKVX NSCLC

Row | Structure (SMILES) | TGI (LOX IMVI melanoma) [µM] | TGI (RXF 393 renal) [µM] | TGI (SK-MEL-28 melanoma) [µM] | TGI (NCI/ADR-RES ovarian) [µM] | TGI (A549 NSCLC) [µM] | TGI (MDA-MB-231 breast) [µM] | TGI (MDA-MB-435) [µM] | TGI (MALME-3M melanoma) [µM] | TGI (NCI-H522 lung) [µM] | TGI (MCF7 breast) [µM] | TGI (HOP-62 NSCLC) [µM] | TGI (PC-3 prostate) [µM] | TGI (RPMI-8226 leukemia) [µM] | TGI (SK-OV-3 ovarian) [µM] | TGI (OVCAR-5 ovarian) [µM] | TGI (U251 CNS) [µM] | TGI (EKVX NSCLC) [µM]
1 | CN(C)/C=N/c1cc(=O)n(C)c(=O)n1C | > 100 | > 100 | > 100 | > 100 | > 100 | > 100 | > 100 | > 100 | > 100 | > 100 | > 100 | > 100 | > 100 | > 100 | > 100 | > 100 | > 100
2 | C=CC(=O)C#Cc1cnc(OC)nc1OC | 20.5 | > 66.2 | > 47 | > 86.7 | > 100 | 38.1 | 51.5 | 53.3 | 42.7 | 30.6 | 45.7 | 42 | 6.93 | > 100 | 33.9 | 18.7 | > 72
3 | CNc1ccc(C)cc1S(=O)(=O)c1ccccc1[N+](=O)[O-] | > 100 | > 100 | > 100 | > 100 | > 100 | > 100 | > 100 | > 100 | > 100 | 65 | > 100 | > 100 | > 100 | > 100 | > 100 | > 100 | > 100
4 | NC(=S)NN=Cc1ccccc1OCc1cccc(COc2ccccc2C=NNC(N)=S)n1 | > 100 | 10.9 | > 100 | > 100 | > 100 | 22.3 | > 100 | > 100 | > 100 | > 100 | 35.3 | > 100 | > 100 | 29.6 | > 100 | 19.3 | > 50.6
5 | CC(O)C1(O)C(O)CC(OC2c3cc4c(c(O)c3[C@@H]3C[C@@]2(C)OC32C=c3cc[nH]c3=N2)C(=O)c2cccc(O)c2C4=O)OC1C (some centres not stated) | 3.17 | 2.31 | 3.78 | 18 | 4.4 | 3.89 | 3.14 | 2.15 | 1.09 | 1.69 | 5.37 | 4.86 | 4.88 | 9.47 | 9.49 | 9.03 | 3.6
6 | CC(=O)n1nc(-c2[nH]c(C)c(-c3nn(C(C)=O)c(=S)o3)c2C)oc1=S | > 100 | > 100 | > 100 | > 100 | > 100 | > 100 | > 100 | > 96.6 | > 100 | > 100 | > 100 | > 100 | > 100 | > 100 | > 100 | > 100 | > 100
7 | CC(=O)OC[C@@]1(C)[C@@H]2[C@@H]3[C@@]4(CO[C@]3(C)C(=O)[C@@]3(OC(C)=O)C[C@H](C)[C@H](OC(C)=O)[C@@H]3[C@H]4OC(C)=O)[C@H](OC(=O)c3ccccc3)C[C@@H]21 | > 100 | > 100 | > 100 | > 100 | > 100 | > 100 | > 100 | > 100 | > 100 | > 100 | > 100 | > 100 | > 100 | > 100 | > 100 | > 100 | > 100
8 | COC(=O)NCCc1[nH]nc2c1C(=O)C=C(Nc1ccccc1OC)C2=O | 69.9 | > 100 | 95.9 | 52.1 | > 100 | 94.3 | 30.8 | 28 | 78.2 | 38.7 | > 100 | > 100 | > 100 | > 100 | > 100 | 72.5 | > 100
9 | C=C(Cl)[C@](Cl)(CBr)CC[C@@H](Br)C(C)(C)Cl | 32.1 | 0.576 | 3.27 | 4.32 | 5.49 | 3.39 | 4.03 | 24.2 | 30.2 | 2.18 | 0.9 | 1.18 | 0.363 | 25.3 | 2.98 | 0.335 | 8.04
10 | O=C(N[C@H](CO)[C@H](O)c1ccc([N+](=O)[O-])cc1)C(Cl)Cl | > 100 | > 100 | > 100 | > 100 | > 100 | > 100 | > 100 | > 100 | > 100 | > 100 | > 100 | > 100 | > 100 | > 100 | > 100 | > 100 | > 100
11 | COC(=O)c1cc(C#N)[nH]c1-c1ccc(Br)s1 | 23.1 | 19.4 | 24.4 | 30.6 | 23 | 30.7 | 34.5 | 19.7 | 19.6 | 18.6 | 21.4 | 13.4 | > 73.3 | 24.7 | 24.1 | 24.8 | 17.1
12 | CC(C)=NC(C(=O)O)C(C)(C)S (configuration not stated) | > 100 | > 100 | > 100 | > 100 | > 100 | > 100 | > 100 | > 100 | > 100 | > 100 | > 100 | > 100 | > 100 | > 100 | > 100 | > 100 | > 100
13 | COc1ccc(NC(=O)CSc2nc(C)nc3c2sc(=S)n3-c2ccccc2)cc1 | > 10 | > 10 | > 10 | > 10 | > 10 | > 10 | > 10 | > 10 | > 10 | > 10 | > 10 | > 10 | > 10 | > 10 | > 10 | > 10 | > 10
14 | O=C(O)CCC1C(=O)C2CCN1CC2 (configuration not stated) | > 100 | > 100 | > 100 | > 100 | > 100 | > 100 | > 100 | > 100 | > 100 | > 100 | > 100 | > 100 | > 100 | > 100 | > 100 | > 100 | > 100
15 | CN1CCOC1(C)c1ccccc1 (configuration not stated) | > 100 | > 100 | > 100 | > 100 | > 100 | > 100 | > 100 | > 100 | > 100 | > 100 | > 100 | > 100 | > 100 | > 100 | > 100 | > 100 | > 100
16 | O=C(NCCc1ccccn1)c1ccc2cc(C(=O)N3CC(CCl)c4ccc([N+](=O)[O-])cc43)[nH]c2c1 (configuration not stated) | > 100 | 60.3 | > 100 | > 100 | > 100 | > 66.8 | > 100 | > 100 | > 86.7 | > 100 | 48.4 | > 100 | > 100 | 46 | > 100 | > 100 | > 100
17 | CC(=O)OC1CCn2c1nc1c2C(=O)C=C(N2CC2)C1=O (configuration not stated) | 0.275 | 0.241 | 0.147 | 1.28 | 6.25 | 3.92 | 1.71 | 0.0872 | 0.124 | 0.957 | 4.69 | 2.52 | 1.37 | 6.15 | 2.61 | 0.853 | 2.39
18 | C#CCC(O)c1ccc(OC)c(OCc2ccccc2)c1 (configuration not stated) | > 100 | > 100 | > 100 | > 100 | > 100 | > 100 | > 100 | > 100 | > 100 | > 100 | > 100 | > 100 | > 100 | > 100 | > 100 | > 100 | > 100
19 | Cc1cc(N(C)c2ccccc2)nc(N(C)c2ccccc2)n1 | 27.9 | 59.5 | 98 | > 100 | > 100 | 78.9 | > 100 | 55.8 | > 100 | 68.4 | 72.8 | > 100 | 65.1 | > 100 | 52.6 | > 100 | > 100
20 | O=C(Cc1csc2[n+]1C(=O)/C(=C/c1ccc(Cl)cc1)S2)Nc1ccccc1 | 34.4 | 42.6 | > 100 | 82.4 | 84.6 | 37.3 | 95 | 90.6 | 40.5 | 66.1 | 30.4 | 41.3 | > 100 | 99.5 | 80.9 | 32.1 | 53.4
21 | O=c1c2ccccc2nc(-c2ccccc2)n1/N=C/c1ccccc1[N+](=O)[O-] | > 100 | 80.4 | > 100 | > 100 | > 100 | > 72.8 | > 100 | > 100 | > 100 | > 100 | 37.1 | > 100 | > 100 | > 100 | > 100 | > 94.8 | > 100
